Reference: ChEMBL document CHEMBL4330111 (Bioorg Med Chem Lett, 2019)

Key:
Vero = assay: Cytotoxicity against African green monkey Vero cells after 48 hrs by MTT assay; format: cell-based; details: chlorocebus sabaeus
[1] = tested on: Mycobacterium tuberculosis; assay: microbe, parasite or virus in culture; details: H37Rv, 144 h
Description: Antitubercular activity against Mycobacterium tuberculosis H37Rv after 6 days by alamar blue reagent based assay

Acinetobacter baumannii = assay: Antibacterial activity against Acinetobacter baumannii ATCC 19606; format: functional; details: ATCC 19606 = CIP 70.34 = JCM 6841
[2] = Antibacterial activity against Enterobacter cloacae ATCC 13047; format: functional, Enterobacter cloacae subsp. cloacae
Enterococcus faecium = assay: Antibacterial activity against Enterococcus faecium NCTC 7171; format: functional
Klebsiella pneumoniae = assay: Antibacterial activity against Klebsiella pneumoniae BAA 2146; format: functional; details: ATCC BAA-2146
Pseudomonas aeruginosa = assay: Antibacterial activity against Pseudomonas aeruginosa HER1018; format: functional
Staphylococcus aureus = assay: Antibacterial activity against Staphylococcus aureus ATCC 43300; format: functional
[3] = Half life in mouse liver microsomes; format: ADME, Microsome
[4] = Kinetic solubility of the compound in pH 7.4 phosphate buffered saline; format: physicochemical; details: for solubility kinetic: phosphate buffered saline, read-out: Kinetic_solubility; for Kinetic_solubility: buffer
[5] = Cmax in CD-1 mouse at 25 mg/kg, po administered as single dose by LC-MS/MS analysis; format: ADME, organism-based; design: dose 25 mg/kg, route oral; details: in vivo
[6] = AUC (0 to 5 hrs) in CD-1 mouse at 25 mg/kg, po administered as single dose by LC-MS/MS analysis; format: ADME, organism-based; design: dose 25 mg/kg, route oral; details: in vivo
[7] = Intrinsic clearance in mouse liver microsomes assessed per mg protein; format: ADME, Microsome
[8] = Ratio of drug level in CD-1 mouse lungs to plasma at 25 mg/kg, po administered as single dose measured after 5 hrs by LC-MS/MS analysis; format: ADME, organism-based; details: lung/plasma

| Structure (SMILES) | CC50 (Vero) | MIC [1] | also measured |
| --- | --- | --- | --- |
| O=C(NCc1ccccc1Cl)c1ccc([N+](=O)[O-])o1 | 11 µM | 6.2 µM | – |
| O=C(NCc1ccccc1)c1ccc([N+](=O)[O-])o1 | 13 µM | 0.39 µM | MIC (Acinetobacter baumannii): > 200 µM; MIC [2]: > 200 µM; MIC (Enterococcus faecium): > 200 µM; MIC (Klebsiella pneumoniae): > 200 µM; MIC (Pseudomonas aeruginosa): > 200 µM; MIC (Staphylococcus aureus): > 200 µM; t1/2 [3]: 28.5 min; solubility kinetic [4]: > 500 µM; Cmax ([5]; CD-1, mouse, read-out: Cmax): 1.16 µM; AUC [6]: 0.547 µg·h/mL; Intrinsic clearance [7]: 24.3 µL/min |
| O=C(Nc1ccc(Cl)cc1)c1ccc([N+](=O)[O-])o1 | 1.5 µM | 0.78 µM | – |
| O=C(Nc1ccccc1)c1ccc([N+](=O)[O-])o1 | 6.7 µM | 3.1 µM | – |
| O=C(NCCc1ccccc1)c1ccc([N+](=O)[O-])o1 | 12 µM | 3.1 µM | – |
| CC(NC(=O)c1ccc([N+](=O)[O-])o1)c1ccccc1 (stereo unspecified) | 24 µM | 6.2 µM | – |
| CC(C)(NC(=O)c1ccc([N+](=O)[O-])o1)c1ccccc1 | – | 0.78 µM | t1/2 [3]: 74.5 min; Kinetic_solubility [4]: 388 µM; Cmax ([5]; CD-1, mouse, read-out: Cmax): 1.62 µM; AUC [6]: 0.717 µg·h/mL; Intrinsic clearance [7]: 9.3 µL/min |
| O=C(NC(=O)c1ccc([N+](=O)[O-])o1)c1ccccc1 | 3 µM | 25 µM | – |
| O=C(Nc1cc2ccccc2o1)c1ccc([N+](=O)[O-])o1 | 40 µM | 0.2 µM | – |
| CC(C)(NC(=O)c1ccc([N+](=O)[O-])o1)c1ccc(Oc2ccc(Cl)cc2)cc1 | 67 µM | 0.39 µM | – |
| CC(C)(C)C(NC(=O)c1ccc([N+](=O)[O-])o1)c1ccccc1 (stereo unspecified) | 10 µM | 25 µM | – |
| O=C(NCc1ccc(Oc2ccc(Cl)cc2)cc1)c1ccc([N+](=O)[O-])o1 | – | 0.062 µM | – |
| O=C(NCCCc1ccc(Cl)cc1)c1ccc([N+](=O)[O-])o1 | 19 µM | 0.39 µM | – |
| O=C(NCc1cccc(Cl)c1)c1ccc([N+](=O)[O-])o1 | 5.5 µM | 0.78 µM | – |
| CC(C)(NC(=O)c1ccc([N+](=O)[O-])o1)c1ccc(COc2ccccc2OC(F)(F)F)cc1 | 13 µM | 0.098 µM | – |
| CC(C)(NC(=O)c1ccc([N+](=O)[O-])o1)c1ccc(COc2ccc(C(F)(F)F)cc2)cc1 | 7 µM | 0.39 µM | – |
| CC(C)C(NC(=O)c1ccc([N+](=O)[O-])o1)c1ccccc1 (stereo unspecified) | 22 µM | 6.2 µM | – |
| COc1ccc(OCc2ccc(C(C)(C)NC(=O)c3ccc([N+](=O)[O-])o3)cc2)cc1 | > 120 µM | 0.078 µM | MIC (Acinetobacter baumannii): > 120 µM; MIC [2]: > 120 µM; MIC (Enterococcus faecium): > 120 µM; MIC (Klebsiella pneumoniae): > 120 µM; MIC (Pseudomonas aeruginosa): > 120 µM; MIC (Staphylococcus aureus): > 120 µM; t1/2 [3]: 45 min; solubility kinetic [4]: < 0.06 µM; Cmax ([5]; mouse): 5 ng/mL; AUC [6]: 0.011 µg·h/mL; Intrinsic clearance [7]: 15.4 µL/min |
| COc1ccccc1OCc1ccc(C(C)(C)NC(=O)c2ccc([N+](=O)[O-])o2)cc1 | – | 0.019 µM | MIC (Acinetobacter baumannii): > 120 µM; MIC [2]: > 120 µM; MIC (Enterococcus faecium): > 120 µM; MIC (Klebsiella pneumoniae): > 120 µM; MIC (Pseudomonas aeruginosa): > 120 µM; MIC (Staphylococcus aureus): > 120 µM; t1/2 [3]: 11.6 min; Kinetic_solubility [4]: 0.182 µM; Cmax ([5]; CD-1, mouse, read-out: Cmax): 0.21 µM; AUC [6]: 0.21 µg·h/mL; Kp at 5 h [8]: 0.04 to 0.09; Intrinsic clearance [7]: 59.8 µL/min |
| CC(C)(NC(=O)c1ccc([N+](=O)[O-])o1)c1ccc(C#N)cc1 | 83 µM | > 10 µM | – |
| CC(C)(NC(=O)c1ccc([N+](=O)[O-])o1)c1ccc(F)cc1 | 42 µM | 0.78 µM | – |
| CC(C)(NC(=O)c1ccc([N+](=O)[O-])o1)c1ccc(C(F)(F)F)cc1 | > 150 µM | 0.78 µM | – |

| Structure (SMILES) | CC50 (Vero) | MIC [1] | also measured |
| --- | --- | --- | --- |
| CC(C)(NC(=O)c1ccc([N+](=O)[O-])o1)c1ccc(COc2ccc(OC(F)(F)F)cc2)cc1 | 6.7 µM | 0.39 µM | – |
| CC(C)(NC(=O)c1ccc([N+](=O)[O-])o1)c1ccc(Cl)cc1 | – | 0.15 µM | – |
| COc1ccc(C(C)(C)NC(=O)c2ccc([N+](=O)[O-])o2)cc1 | – | 0.078 µM | – |
| O=C(NCCCc1ccccc1)c1ccc([N+](=O)[O-])o1 | 11 µM | 0.78 µM | – |
| CC(C)(NC(=O)c1ccc([N+](=O)[O-])o1)c1ccc(COc2ccc(Cl)cc2)cc1 | – | 0.12 µM | Cmax ([5]; CD-1, mouse, read-out: Cmax): 0.022 µM; AUC [6]: 0.034 µg·h/mL |
| CN(C)c1ccc(C(C)(C)NC(=O)c2ccc([N+](=O)[O-])o2)cc1 | 79 µM | 0.2 µM | – |
| O=C(NCc1ccc(Cl)cc1)c1ccc([N+](=O)[O-])o1 | – | 0.098 µM | – |
| CC(C)(NC(=O)c1ccc([N+](=O)[O-])o1)c1ccc(OC(F)(F)F)cc1 | 70 µM | 0.2 µM | – |
| O=C(Nc1cc2ccccc2s1)c1ccc([N+](=O)[O-])o1 | 38 µM | 0.078 µM | t1/2 [3]: 1.87 min; Kinetic_solubility [4]: 5.61 µM; Intrinsic clearance [7]: 371 µL/min |
| CC(C)(NC(=O)c1ccc([N+](=O)[O-])o1)c1ccc(CN2CCOCC2)cc1 | 130 µM | > 10 µM | – |
| O=C(NCCc1ccc(Cl)cc1)c1ccc([N+](=O)[O-])o1 | 5.4 µM | 0.39 µM | – |
| O=C(NC1(c2ccccc2)CC1)c1ccc([N+](=O)[O-])o1 | 46 µM | 6.2 µM | – |
| O=C(Nc1ccc2ccccc2c1)c1ccc([N+](=O)[O-])o1 | > 150 µM | 0.0078 µM | t1/2 [3]: 2.13 min; Kinetic_solubility [4]: 1.5 µM; Intrinsic clearance [7]: 325 µL/min |
| O=C(NCc1ccc(COc2ccc(Cl)cc2)cc1)c1ccc([N+](=O)[O-])o1 | – | 0.039 µM | – |
| O=C(NC(c1ccccc1)C1CC1)c1ccc([N+](=O)[O-])o1 (stereo unspecified) | 22 µM | 12 µM | – |
| O=C(NCc1ccc(CN2CCOCC2)cc1)c1ccc([N+](=O)[O-])o1 | 18 µM | 1.2 µM | – |
| CC(C)(NC(=O)c1ccc([N+](=O)[O-])o1)c1ccc(-c2ccc(Cl)cc2)cc1 | > 140 µM | 25 µM | – |
| CC(C)(NC(=O)c1ccc([N+](=O)[O-])o1)c1ccc(COc2ccccc2C(F)(F)F)cc1 | 14 µM | 0.31 µM | – |
| O=C(NCc1ccc(-c2ccc(Cl)cc2)cc1)c1ccc([N+](=O)[O-])o1 | 4.4 µM | 0.12 µM | – |
| CC(C)(C)c1ccc(C(C)(C)NC(=O)c2ccc([N+](=O)[O-])o2)cc1 | > 150 µM | 0.39 µM | – |
| CC(C)(NC(=O)c1ccc([N+](=O)[O-])o1)c1ccc(COc2ccccc2Cl)cc1 | 30 µM | 0.31 µM | – |
| CO[C@H]1/C=C/O[C@@]2(C)Oc3c(C)c(O)c4c(O)c(c(/C=N/N5CCN(C)CC5)c(O)c4c3C2=O)NC(=O)/C(C)=C\C=C\[C@H](C)[C@H](O)[C@@H](C)[C@@H](O)[C@@H](C)[C@H](OC(C)=O)[C@@H]1C [RIFAMPIN] | – | 0.0125 to 0.05 mg/L | – |
